The values that follow come from patent US20160151377A1, “USE OF SIGMA RECEPTOR LIGANDS FOR THE PREVENTION AND TREATMENT OF PAIN ASSOCIATED TO INTERSTITIAL CYSTITIS/BLADDER PAIN SYNDROME (IC/BPS)” (LABORATORIOS DEL DR. ESTEVE S.A., priority 2013, published 2016).

Experiment [1] relates to cyclophosphamide-induced cystitis. Type of experiment: in vivo, mice. How it is done:
(§1) Testing took place during the light phase (from 9.00 h to 15.00 h).

Experiment [2] has the same test system. To be noted: cyclophosphamide 300 mg/kg i.p., WT mice. How it is done: as §1
For a further experiment, the system named is σ1 receptors. To be noted: cited from earlier work; for affinity for σ1 receptors relative to haloperidol: rodent brain membranes and human neuroblastoma cells.
Another experiment concerns D2 receptors. To be noted: compared with haloperidol; cited from earlier work.
The next experiment deals with sigma-1 receptors. The note with it: both in experimental animals and human cells; cited from earlier work.
The test system of another experiment is sigma receptor. The note with it: cited from earlier work.

Turning to `O=P1(N(CCCl)CCCl)NCCCO1` (stereo not shown) [cyclophosphamide], the “mechanical threshold for referred hyperalgesia” value in experiment [1] (cyclophosphamide 100 mg/kg i.p., WT and σ1-KO mice) was “maximum reduction in the mechanical threshold”. Also, the “pain score (pain-related behaviors)” value in experiment [2] is “maximum pain score”.
For the compound `OC1(c2ccc(Cl)cc2)CCNCC1` [metabolite I, 4-(4-chlorophenyl)-4-hydroxypiperidine], the “affinity for σ1 receptors relative to haloperidol” value with σ1 receptors is on record as “less affinity than haloperidol”. In addition, in the experiment on D2 receptors, the “affinity for D2 receptors” value is given as “no affinity”.
Regarding `OC(CCCN1CCC(O)(c2ccc(Cl)cc2)CC1)c1ccc(F)cc1` (stereo not shown) [metabolite II, 4-(4-chlorophenyl)-[…]-(4-fluorophenyl)-4-hydroxy-1-piperidinebutanol], in the experiment with σ1 receptors, the “affinity for sigma-1 receptors” value is listed as “high affinity (in the low nanomolar range)” and the “affinity for σ1 receptors relative to haloperidol” value was “less affinity than haloperidol”. For the same compound, in the experiment on D2 receptors, the “affinity for D2 receptors” value is listed as “much lower”. Further, in the experiment on sigma-1 receptors, the “blockade of sigma-1 receptors” value is “irreversible blockade”.
Take `CN1CC[C@]23c4c5ccc(O)c4O[C@H]2[C@@H](O)C=C[C@H]3[C@H]1C5.Cl` [morphine, Morphine hydrochloride]: the “50% mechanical threshold, referred mechanical hyperalgesia” value in experiment [1] (mouse, in vivo) is given as “increase the mechanical threshold to above the control value”.
As to `CC(C)=CCN1CCC2(C)c3cc(O)ccc3CC1C2C` (stereo not shown) [pentazocine], the “affinity of sigma receptors for analgesics” value with sigma receptor is “very high affinity”.
